# Measured values as given in PubChem BioAssay (NCI).
#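 Five concentrations, 48 hours, 96-well plates. At the GI50, growth is halved. Definition used: TGI = concentration required for complete inhibition of growth.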
# Assays:
# Test in all cases: NCI tumour cell line growth inhibition, 48 h
# [1] = system: SNB-75 CNS
# [2] = system: SF-295 CNS
# [3] = system: EKVX NSCLC
# [4] = system: CCRF-CEM leukemia
# [5] = system: DU-145 prostate
# [6] = system: NCI-H460 lung
# [7] = system: A498 renal
# [8] = system: BT-549 breast
# [9] = system: NCI/ADR-RES ovarian
# [10] = system: SW-620 colon
# [11] = system: SK-MEL-2 melanoma
# [12] = system: ACHN renal
# [13] = system: SN12C renal
# [14] = system: HT29 colon
# [15] = system: HOP-62 NSCLC
# [16] = system: OVCAR-3 ovarian
# [17] = system: HCT-116 colon
# [18] = system: NCI-H522 lung
# [19] = system: SNB-19 CNS
# [20] = system: HCC-2998 colon
# [21] = system: HL-60(TB) leukemia
# [22] = system: KM12 colon
# [23] = system: SR leukemia
# [24] = system: HS 578T breast
# [25] = system: PC-3 prostate
# [26] = system: SK-OV-3 ovarian
# [27] = system: NCI-H226 lung
# [28] = system: CAKI-1 renal
# [29] = system: MCF7 breast
# [30] = system: UO-31 renal
# [31] = system: NCI-H23 lung
# [32] = system: 786-0 renal
# [33] = system: MALME-3M melanoma
# [34] = system: SF-268 CNS
# [35] = system: HCT-15 colon
# [36] = system: OVCAR-8 ovarian
# [37] = system: K-562 leukemia
# [38] = system: UACC-257 melanoma
# [39] = system: OVCAR-4 ovarian
# [40] = system: RXF 393 renal
# [41] = system: RPMI-8226 leukemia
# [42] = system: OVCAR-5 ovarian
# [43] = system: SK-MEL-28 melanoma
# [44] = system: UACC-62 melanoma
# [45] = system: SF-539 CNS
# [46] = system: T-47D breast
# [47] = system: IGROV1 ovarian
# [48] = system: U251 CNS
# [49] = system: MDA-MB-231 breast
# [50] = system: COLO 205 colon
# [51] = system: LOX IMVI melanoma
# [52] = system: HOP-92 NSCLC
# [53] = system: M14 melanoma
# [54] = system: MOLT-4 leukemia
# [55] = system: MDA-MB-435
# [56] = system: SK-MEL-5 melanoma
# [57] = system: TK-10 renal
# [58] = system: A549 NSCLC
compound,measurement,setting,value
CCO/C=N/C1=C(C#N)C(c2ccc(F)cc2)c2sc3c(C)cccc3c2O1 (stereo unspecified),GI50,[1],114 nM
same,TGI,[1],2640 nM
same,GI50,[2],250 nM
same,TGI,[2],2800 nM
same,GI50,[3],383 nM
same,TGI,[3],18300 nM
same,GI50,[4],359 nM
same,TGI,[4],21300 nM
same,GI50,[5],434 nM
same,TGI,[5],14200 nM
same,GI50,[6],367 nM
same,TGI,[6],11100 nM
same,GI50,[7],261 nM
same,TGI,[7],1480 nM
same,GI50,[8],751 nM
same,TGI,[8],5630 nM
same,GI50,[9],220 nM
same,TGI,[9],12700 nM
same,GI50,[10],401 nM
same,TGI,[10],15800 nM
same,GI50,[11],726 nM
same,TGI,[11],20700 nM
same,GI50,[12],616 nM
same,TGI,[12],14600 nM
same,GI50,[13],534 nM
same,TGI,[13],13900 nM
same,GI50,[14],389 nM
same,TGI,[14],12600 nM
same,GI50,[15],423 nM
same,TGI,[15],15800 nM
same,GI50,[16],379 nM
same,TGI,[16],11900 nM
same,GI50,[17],375 nM
same,TGI,[17],10400 nM
same,GI50,[18],214 nM
same,TGI,[18],11700 nM
same,GI50,[19],452 nM
same,TGI,[19],16500 nM
same,GI50,[20],421 nM
same,TGI,[20],12900 nM
same,GI50,[21],340 nM
same,TGI,[21],12900 nM
same,GI50,[22],389 nM
same,TGI,[22],14700 nM
same,GI50,[23],524 nM
same,TGI,[23],60100 nM
same,GI50,[24],325 nM
same,TGI,[24],14800 nM
same,GI50,[25],386 nM
same,TGI,[25],14800 nM
same,GI50,[26],834 nM
same,TGI,[26],25500 nM
same,GI50,[27],1290 nM
same,TGI,[27],12100 nM
same,GI50,[28],386 nM
same,TGI,[28],17200 nM
same,GI50,[29],271 nM
same,TGI,[29],13100 nM
same,GI50,[30],572 nM
same,TGI,[30],15900 nM
same,GI50,[31],517 nM
same,TGI,[31],14700 nM
same,GI50,[32],614 nM
same,TGI,[32],12900 nM
same,GI50,[33],10600 nM
same,TGI,[33],24800 nM
same,GI50,[34],1740 nM
same,TGI,[34],17300 nM
same,GI50,[35],336 nM
same,TGI,[35],11500 nM
same,GI50,[36],499 nM
same,TGI,[36],20300 nM
same,GI50,[37],281 nM
same,TGI,[37],> 62100 nM
same,GI50,[38],12900 nM
same,TGI,[38],35600 nM
same,GI50,[39],1700 nM
same,TGI,[39],24800 nM
same,GI50,[40],175 nM
same,TGI,[40],550 nM
same,GI50,[41],371 nM
same,TGI,[41],11000 nM
same,GI50,[42],574 nM
same,TGI,[42],16400 nM
same,GI50,[43],1400 nM
same,TGI,[43],20600 nM
same,GI50,[44],404 nM
same,TGI,[44],19500 nM
same,GI50,[45],243 nM
same,TGI,[45],1540 nM
same,GI50,[46],818 nM
same,TGI,[46],66900 nM
same,GI50,[47],379 nM
same,TGI,[47],14900 nM
same,GI50,[48],473 nM
same,TGI,[48],15500 nM
same,GI50,[49],531 nM
same,TGI,[49],17600 nM
same,GI50,[50],401 nM
same,TGI,[50],2250 nM
same,GI50,[51],626 nM
same,TGI,[51],14100 nM
same,GI50,[52],624 nM
same,TGI,[52],8000 nM
same,GI50,[53],316 nM
same,TGI,[53],12200 nM
same,GI50,[54],560 nM
same,TGI,[54],32200 nM
same,GI50,[55],178 nM
same,TGI,[55],609 nM
same,GI50,[56],487 nM
same,TGI,[56],2530 nM
same,GI50,[57],11800 nM
same,TGI,[57],27500 nM
same,GI50,[58],458 nM
same,TGI,[58],18700 nM
